What was measured:
Type in all cases: cell-based
[1] = test system: IL-6; test: PBMC assay, LPS-induced IL-6 (Meso Scale); settings: Homo sapiens, PBMCs, 100 ng/mL LPS 18-24 hrs; for inhibition at 0.1 µM: compound at 0.1 μM; for inhibition at 1 µM: compound at 1 μM; for inhibition at 10 µM: compound at 10 μM
Procedure: (§1) FIG. 2 represents the activity against IL-6 in peripheral blood mononuclear cells (PBMCs), plated in 96 well plates and pretreated with compound for 1 hour and then induced with 100 ng/mL LPS for 18-24 hrs. Cytokines were measured according to MesoScale protocol. Negative control wells were treated with DMSO. Compound activity was measured as a percentage of LPS-induced activity.
(§2) Frozen primary blood mononuclear cells (PBMCs) were purchased from AllCells. Cells were quick thawed, washed once with RPMI-1640/10% FBS.
(§3) 1% Penicillin/1% Streptomycin and plated in 96 well plates at 200,000 cells per well. Cells were pretreated with DMSO only, or Compound 1 for 1 hour and then induced with 100 ng/mL lipopolysaccharide (LPS) for 18-24 hrs. The supernatant was analyzed for IL-1 beta, IL-6, and TNFα, using Meso Scale assay according to manufacturer's protocol. The negative control wells were treated with DMSO.
(§4) Compound activity was measured as fold difference from the DMSO control. IL-1β activity is shown in FIG. 1; IL-6 activity is shown in FIG. 2; TNFα activity is shown in FIG. 3; and IL-2 activity is shown in FIG. 4. Additional data for compounds (shown as percent inhibition) at 10 μM is shown in Table 1; at 1 μM in Table 2; and at 0.1 μM in Table 3.

[2] = test system: Molm-13 cells; test: Cell viability assay (CellTiter-Glo), Molm-13 proliferation; settings: Homo sapiens, MOLM-13, 72 h, 3 days; for inhibition at 10 µM: compound at 10 μM; for inhibition at 0.1 µM: compound at 0.1 μM; for inhibition at 1 µM: compound at 1 μM
Procedure: (§5) Molm-13 and MV-4-11 cells were cultivated in RPMI-1640 (10% FBS/1% pen-strep) and were plated in white walled 96-well plates at 20,000 cells/well.
(§6) Cells were treated with compound at the indicated concentration or DMSO (control) and the cultures were incubated for 3 days at 37° C. and 5% CO2. Following the incubation period, 100 μL of CellTiterGlow (CTG) reagent (CellTiter-Glo® Luminescent Cell Viability Assay, Promega (Madison, Wis.)) was added to each well. Following a 10 min incubation with shaking, luminescence was measured using a Victor Wallac Luminometer.

[3] = test system: TNFα; test: PBMC assay, LPS-induced TNFα (Meso Scale); settings: Homo sapiens, PBMCs, 100 ng/mL LPS 18-24 hrs; for inhibition at 0.1 µM: compound at 0.1 μM; for inhibition at 1 µM: compound at 1 μM; for inhibition at 10 µM: compound at 10 μM
Procedure: as §1, with “FIG. 3” for “FIG. 2”, “against TNFα” for “against IL-6”, “Cytokines in the media” for “Cytokines”, “protocol. The negative” for “protocol. Negative”, “activity is” for “activity was”
as §2, §3, §4

[4] = test system: IL-1β; test: PBMC assay, LPS-induced IL-1β (Meso Scale); settings: Homo sapiens, PBMCs, 100 ng/mL LPS 18-24 hrs; for inhibition at 0.1 µM: compound at 0.1 μM; for inhibition at 1 µM: compound at 1 μM; for inhibition at 10 µM: compound at 10 μM
Procedure: as §1, with “FIG. 1” for “FIG. 2”, “against IL-1-beta” for “against IL-6”, “Cytokines in the media” for “Cytokines”, “activity is” for “activity was”
as §2, §3, §4

[5] = test system: IL-2; test: Anti-CD3-induced IL-2 secretion in PBMCs (Mesoscale); settings: Homo sapiens, PBMC, anti-CD3 stimulated PBMCs, 24 hr, vs DMSO control, read-out: IL-2 Fold Change; for fold induction at 0.1 µM: compound at 0.1 μM; for fold induction at 1 µM: compound at 1 μM; for fold induction at 10 µM: compound 10 μM
Procedure: FIG. 4 represents Anti-CD3-induced IL-2 secretion in PBMCs. 1 μg/mL anti-CD3 (OKT-3) antibody in PBS coated onto 96-well plates overnight at 4° C. Approximately, 550,000 PBMCs were added to each well, followed by addition of DMSO only (control) or Compound 1. Induction was measured after 24 hrs as fold difference from the DMSO stimulated control.
as §2
For the IL-2 analysis, 96 well plates were precoated with 1 μg/mL anti-human CD3 antibody (OKT3, eBioscience Inc.). After washing with PBS, Compound 1 was added (50 μL/well) followed by PBMCs diluted at 3-4 million cells/mL (150 μL/well). Plates were incubated for 24 hr and the supernatants collected for Mesoscale IL-2 analysis.
as §4

[6] = test system: MV-4-11 cells; test: Cell viability assay (CellTiter-Glo), MV-4-11 proliferation; settings: Homo sapiens, MV4-11, 72 h, 3 days; for inhibition at 1 µM: compound at 1 μM; for inhibition at 10 µM: compound at 10 μM
Procedure: as §5, §6

Compound	inhibition at 0.1 µM [1] [%]	inhibition at 10 µM [2] [%]	inhibition at 0.1 µM [3] [%]	inhibition at 0.1 µM [4] [%]	fold induction at 0.1 µM [5]	fold induction at 1 µM [5]	inhibition at 1 µM [6] [%]	inhibition at 10 µM [6] [%]	inhibition at 1 µM [1] [%]	inhibition at 0.1 µM [2] [%]	inhibition at 1 µM [2] [%]	inhibition at 1 µM [3] [%]	inhibition at 1 µM [4] [%]	inhibition at 10 µM [1] [%]	inhibition at 10 µM [3] [%]	inhibition at 10 µM [4] [%]	fold induction at 10 µM [5]
NCc1cccc(COc2cccc3c2CN([C@H]2CCCC(=O)NC2=O)C3=O)c1 [Compound 9, trifluoroacetic acid]	51	34	62	74	1.6	1.6	2	10	–	–	–	–	–	–	–	–	–
O=C1CCC[C@H](N2Cc3c(OCc4ccc(CN5CCOCC5)cc4)cc(F)cc3C2=O)C(=O)N1 [Compound 7]	55	–	62	71	1	1.1	0	0	–	–	–	–	–	–	–	–	–
NCc1ccc2c(c1OCc1ccc(CN3CCOCC3)cc1)CN([C@H]1CCCC(=O)NC1=O)C2=O [Compound 22, ditrifluoroacetic acid]	23	–	78	69	2	2.4	2	4	27	31	56	80	74	–	–	–	–
O=C1CCC[C@H](N2Cc3cc(OCc4ccc(CN5CCOCC5)cc4)ccc3C2=O)C(=O)N1 [Compound 15]	–	–	–	–	–	1.9	38	99	10	–	–	65	59	50	87	81	2.1
NCc1ccc(COc2cccc3c2CN([C@H]2CCCC(=O)NC2=O)C3=O)cc1 [Compound 5, trifluoroacetic acid]	37	40	55	64	1.2	2.1	1	3	–	–	–	–	–	–	–	–	–
O=C1CCC[C@H](N2Cc3c(OCc4ccc(CN5CCOCC5)cc4)cccc3C2=O)C(=O)N1 [Compound 1, (S)-3-(4-((4-(morpholinomethyl)benzyl)oxy)-1-oxoisoindolin-2-yl)azepane-2,7-dione]	63	37	89	83	2.1	0.8	2	5	71	30	15	93	88	–	–	–	–
Cc1cnc(Nc2ccc(OCCCNCC(=O)NCc3ccc(COc4cccc5c4CN([C@H]4CCCC(=O)NC4=O)C5=O)cc3)cc2)nc1Nc1cccc(S(=O)(=O)NC(C)(C)C)c1 [Compound 6]	42	91	62	68	1	2.5	0	76	76	–	–	83	92	–	–	–	–
N#Cc1ccc2c(c1OCc1ccc(CN3CCOCC3)cc1)CN([C@H]1CCCC(=O)NC1=O)C2=O [Compound 19, 2-[(S)-2,7-Dioxo-3-azepanyl]-4-{[p-(morpholinomethyl)phenyl]methoxy}-1-oxo-5-isoindolinecarbonitrile]	12	–	41	22	1.5	2.4	0	0	43	–	–	73	65	–	–	–	–
O=C1CCC[C@H](N2C(=O)c3cccc(OCc4ccc(CN5CCOCC5)cc4)c3C2=O)C(=O)N1 [Compound 11]	12	–	21	21	1.2	1.9	0	0	–	–	–	–	–	–	–	–	–
Cc1cnc(Nc2ccc(OCCCNCC(=O)NCc3ccc(COc4cccc5c4CN([C@H]4CCC(=O)NC4=O)C5=O)cc3)cc2)nc1Nc1cccc(S(=O)(=O)NC(C)(C)C)c1 [Compound 24]	–	–	–	–	–	1	44	80	9	–	–	10	7	1	23	23	1
Cc1cnc(Nc2ccc(OCCCNCC(=O)NCc3ccc(COc4cc(F)cc5c4CN([C@H]4CCCC(=O)NC4=O)C5=O)cc3)cc2)nc1Nc1cccc(S(=O)(=O)NC(C)(C)C)c1 [Compound 21]	–	–	–	–	–	0.9	0	97	8	–	–	20	6	7	30	11	1
O=C1CCC[C@H](N2Cc3c(OCc4ccc(C5CCNCC5)cc4)cccc3C2=O)C(=O)N1 [Compound 4]	43	–	81	72	1.3	2.3	0	0	67	–	–	90	86	–	–	–	–
O=C1COC[C@H](N2Cc3c(OCc4ccc(CN5CCOCC5)cc4)cccc3C2=O)C(=O)N1 [Compound 16]	–	–	–	–	–	0.7	0	99	5	–	–	27	24	78	75	52	0.2
Cc1cnc(Nc2ccc(OCCCNCC(=O)NCc3ccc(COc4cc(F)cc5c4CN([C@H]4CCC(=O)NC4=O)C5=O)cc3)cc2)nc1Nc1cccc(S(=O)(=O)NC(C)(C)C)c1 [Compound 25]	3	–	13	0	0.9	1	54	90	32	–	–	25	8	–	–	–	–
Cc1cnc(Nc2ccc(OCCCNCC(=O)NCc3ccc(COc4cccc5c4CN(C4CCC(=O)NC4=O)C5=O)cc3)cc2)nc1Nc1cccc(S(=O)(=O)NC(C)(C)C)c1 (centres unmarked) [Compound 17]	–	–	–	–	–	1.5	31	98	35	–	–	75	75	100	100	100	0.1

Source: patent publication US10927104B2, “Ether compounds and uses thereof” (BioTheryX, Inc., priority 2017, dated 2021)
